Data set [1] can be described thus: refractive index (Na D-line) (dimensionless). The conditions noted are these: 293.15 K; 101.33 kPa; Liquid; Standard Abbe refractometry.
For data set [2] the following is noted: 293.15 K; 101.33 kPa; Liquid; Vibrating tube method.

Numbers after ± are expanded uncertainties.

Consider `OCC(O)CO` [glycerol], for which, in data set [1], the refractive index came out at 1.474 ± 0.001. Also, the mass density in data set [2] amounted to 1261.3 ± 0.5 kg/m3.
Taken in the same sequence, the figures for `CO` [methanol] were 1.328 ± 0.001 and 791.03 ± 0.23 kg/m3.
As for `O` [water], the refractive index in data set [1] is listed as 1.333 ± 0.001.

The refractive index is a measure of how strongly the sample bends light. In general, mass density refers to the mass of a sample divided by its volume.

Source of the values: the NIST ThermoML archive (doi:10.1016/j.jct.2009.11.020).
